Tested on: Alopecurus myosuroides (ALOMY)
Assay: Example B post-emergence herbicidal activity, glasshouse pot test
Format: in vivo
Conditions: 312 h, rate 250 g/ha, evaluated after 13 days, read-out: ALOMY post-emergence activity (100=total damage to plant; 0=no damage to plant)
Protocol: (§1) Seeds of a variety of test species are sown in standard soil in pots. After cultivation for one day (pre-emergence) or after 8 days cultivation (post-emergence) under controlled conditions in a glasshouse (at 24/16° C., day/night; 14 hours light; 65% humidity), the plants are sprayed with an aqueous spray solution derived from the formulation of the technical active ingredient in acetone/water (50:50) solution containing 0.5% Tween 20 (polyoxyethelyene sorbitan monolaurate, CAS RN 9005-64-5). The test plants are then grown in a glasshouse under controlled conditions in a glasshouse (at 24/16° C., day/night; 14 hours light; 65% humidity) and watered twice daily. After 13 days for pre and post-emergence, the test is evaluated (100=total damage to plant; 0=no damage to plant). Test Plants: Setaria faberi (SETFA), Alopecurus myosuroides (ALOMY), Echinochloa crus-galli (ECHCG), Avena fatua (AVEFA)
`CON1CCC2(CC1)NC(=O)C(c1cc(C3CC3)c(C)cc1C)C2=O` (stereo not drawn) [Compound T16, 3-(5-cyclopropyl-2,4-dimethyl-phenyl)-4-hydroxy-8-methoxy-1,8-diaza-spiro[4.5]dec-3-en-2-one] gave a pest or weed control at 250 g/ha of 60%.
Work on `CON1CCC2(CC1)NC(=O)C(c1cc(C3CC3)c(C)cc1C)=C2OC(=O)C(C)(C)C` [Compound P56] yielded a pest or weed control at 250 g/ha of 20%.
Compound `CON1CCC2(CC1)NC(=O)C(c1ccc(Br)cc1C)C2=O` (stereo not drawn) [Compound T22] has a pest or weed control at 250 g/ha of 60%.

Tested on: Avena fatua (AVEFA)
Assay: as above
Format: in vivo
Conditions: 312 h, rate 250 g/ha, evaluated after 13 days, read-out: AVEFA post-emergence activity (100=total damage to plant; 0=no damage to plant)
Protocol: as §1
For `CON1CCC2(CC1)NC(=O)C(c1cc(C3CC3)c(C)cc1C)C2=O` (stereo not drawn) [Compound T16, 3-(5-cyclopropyl-2,4-dimethyl-phenyl)-4-hydroxy-8-methoxy-1,8-diaza-spiro[4.5]dec-3-en-2-one], the pest or weed control at 250 g/ha was 30%.
`CON1CCC2(CC1)NC(=O)C(c1cc(C3CC3)c(C)cc1C)=C2OC(=O)C(C)(C)C` [Compound P56] showed a pest or weed control at 250 g/ha of 40%.
Compound `CON1CCC2(CC1)NC(=O)C(c1ccc(Br)cc1C)C2=O` (stereo not drawn) [Compound T22] has a pest or weed control at 250 g/ha of 40%.

Tested on: Echinochloa crus-galli (ECHCG)
Assay: as above
Format: in vivo
Conditions: 312 h, rate 250 g/ha, evaluated after 13 days, read-out: ECHCG post-emergence activity (100=total damage to plant; 0=no damage to plant)
Protocol: as §1
Compound `CON1CCC2(CC1)NC(=O)C(c1cc(C3CC3)c(C)cc1C)C2=O` (stereo not drawn) [Compound T16, 3-(5-cyclopropyl-2,4-dimethyl-phenyl)-4-hydroxy-8-methoxy-1,8-diaza-spiro[4.5]dec-3-en-2-one] has a pest or weed control at 250 g/ha of 60%.
With `CON1CCC2(CC1)NC(=O)C(c1cc(C3CC3)c(C)cc1C)=C2OC(=O)C(C)(C)C` [Compound P56] the pest or weed control at 250 g/ha was 50%.
With `CON1CCC2(CC1)NC(=O)C(c1ccc(Br)cc1C)C2=O` (stereo not drawn) [Compound T22] the pest or weed control at 250 g/ha was 80%.

Tested on: Setaria faberi (SETFA)
Assay: as above
Format: in vivo
Conditions: 312 h, rate 250 g/ha, evaluated after 13 days, read-out: SETFA post-emergence activity (100=total damage to plant; 0=no damage to plant)
Protocol: as §1
Work on `CON1CCC2(CC1)NC(=O)C(c1cc(C3CC3)c(C)cc1C)C2=O` (stereo not drawn) [Compound T16, 3-(5-cyclopropyl-2,4-dimethyl-phenyl)-4-hydroxy-8-methoxy-1,8-diaza-spiro[4.5]dec-3-en-2-one] yielded a pest or weed control at 250 g/ha of 80%.
`CON1CCC2(CC1)NC(=O)C(c1cc(C3CC3)c(C)cc1C)=C2OC(=O)C(C)(C)C` [Compound P56] gave a pest or weed control at 250 g/ha of 60%.
In the case of `CON1CCC2(CC1)NC(=O)C(c1ccc(Br)cc1C)C2=O` (stereo not drawn) [Compound T22], the pest or weed control at 250 g/ha is reported as 80%.

Tested on: not given
Assay: not given
Conditions: not given
For `CCOC(=O)OC1=C(c2ccc(C3CC3)cc2C)C(=O)NC12CCN(OC)CC2` [Compound P60], the melting point was 193 to 195 °C.
Compound `CON1CCC2(CC1)NC(=O)C(c1cc(Br)ccc1C)C2=O` (stereo not drawn) [Compound T8] has a melting point of 194 to 196 °C.
For `CON1CCC2(CC1)NC(=O)C(c1cc(-c3ccc(Cl)cc3)c(C)cc1C)=C2OC(=O)C(C)(C)C` [Compound P54], the melting point was 229 to 230 °C.
`C=CCOC(=O)OC1=C(c2cc(C)ccc2C)C(=O)NC12CCN(OC)CC2` [Compound P4] gave a melting point of 140 to 142 °C.
With `CCN(CC)C(=O)OC1=C(c2cc(C)ccc2C)C(=O)NC12CCN(OC)CC2` [Compound P10] the melting point was 129 to 131 °C.
For `CCOC(=O)OC1=C(c2cc(Br)ccc2C)C(=O)NC12CCN(OC)CC2` [Compound P27], the melting point was 205 to 209 °C.
With `CCOC(=O)OC1=C(c2ccc(Cl)c(Cl)c2)C(=O)NC12CCN(OC)CC2` [Compound P30] the melting point was 222 to 224 °C.
Work on `CCOC(=O)OC1=C(c2cc(Br)c(C)cc2C)C(=O)NC12CCN(OC)CC2` [Compound P51] yielded a melting point of 206 to 209 °C.
`CON1CCC2(CC1)NC(=O)C(c1cc(Br)c(C)cc1C)=C2OC(=O)C(C)(C)C` [Compound P52] gave a melting point of 225 to 226 °C.
With `CCOC(=O)OC1=C(c2ccc(C3CC3)cc2Cl)C(=O)NC12CCN(OC)CC2` [Compound P58] the melting point was 190 to 192 °C.
With `CON1CCC2(CC1)NC(=O)C(c1ccc(Cl)c(Cl)c1)C2=O` (stereo not drawn) [Compound T10] the melting point was 239 to 242 °C.
`C#CCOC1=C(c2cc(C)ccc2C)C(=O)NC12CCN(OC)CC2` [Compound P38] showed a melting point of 184 to 185 °C.
For `CON1CCC2(CC1)NC(=O)C(c1cc(C3CC3)c(C)cc1C)=C2OC(=O)C(C)(C)C` [Compound P56], the melting point was 218 to 219 °C.
`CON1CCC2(CC1)NC(=O)C(c1ccc(Br)cc1C)C2=O` (stereo not drawn) [Compound T22] showed a melting point of 187 to 189 °C.
Compound `CON1CCC2(CC1)NC(=O)C(c1ccc(C3CC3)cc1C)C2=O` (stereo not drawn) [Compound T18] has a melting point of 191 to 194 °C.
With `COCCOC1=C(c2cc(C)ccc2C)C(=O)NC12CCN(OC)CC2` [Compound P73] the melting point was 161 to 164 °C.
Compound `CCON1CCC2(CC1)NC(=O)C(c1cc(C)ccc1C)=C2OC(=O)C(C)(C)C` [Compound P24] has a melting point of 169 to 170 °C.
In the case of `CON1CCC2(CC1)NC(=O)C(c1cc(Br)c(F)cc1C)=C2O` [Compound T19, 3-(5-bromo-4-fluoro-2-methyl-phenyl)-4-hydroxy-8-methoxy-1,8-diaza-spiro[4.5]dec-3-en-2-one], the melting point is reported as 229 to 230 °C.
Compound `CON1CCC2(CC1)NC(=O)C(c1ccc(C3CC3)cc1Cl)=C2OC(=O)C(C)(C)C` [Compound P59] has a melting point of 195 to 197 °C.
For `CCON1CCC2(CC1)NC(=O)C(c1ccc(Cl)cc1Cl)=C2OC(=O)C(C)(C)C` [Compound P26], the melting point was 165 to 166 °C.
In the case of `CON1CCC2(CC1)NC(=O)C(c1ccc(Cl)c(Cl)c1)=C2OC(=O)N(C)CCC#N` [Compound P41], the melting point is reported as 56 to 59 °C.
`CCOC(=O)OC1=C(c2cc(C)ccc2C)C(=O)NC12CCN(OCC)CC2` [Compound P21] showed a melting point of 167 to 168 °C.
`CCON1CCC2(CC1)NC(=O)C(c1cc(C)ccc1C)C2=O` (stereo not drawn) [Compound T7] showed a melting point of 166 to 167 °C.
For `CON1CCC2(CC1)NC(=O)C(c1c(C)cc(C3CC3)cc1C)C2=O` (stereo not drawn) [Compound T13], the melting point was > 250 °C.
Compound `COC1=C(c2cc(C)ccc2C)C(=O)NC12CCN(OC)CC2` [Compound P11] has a melting point of 203 to 205 °C.
With `CON1CCC2(CC1)NC(=O)C(c1cc(-c3ccc(F)cc3)c(F)cc1C)=C2OC(=O)C(C)(C)C` [Compound P72] the melting point was 101 to 104 °C.
Work on `CON1CCC2(CC1)NC(=O)C(c1cc(C)ccc1C)=C2OCC#N` [Compound P35] yielded a melting point of 104 to 106 °C.
Compound `CCOC(=O)OC1=C(c2c(C)cc(C3CC3)cc2C)C(=O)NC12CCN(OC)CC2` [Compound P50] has a melting point of 215 to 216 °C.
With `CCCOC(=O)OC1=C(c2cc(C)ccc2C)C(=O)NC12CCN(OC)CC2` [Compound P2] the melting point was 133 to 136 °C.
`CON1CCC2(CC1)NC(=O)C(c1cc(C)ccc1C)=C2OS(=O)(=O)C(C)C` [Compound P13] gave a melting point of 168 to 170 °C.
`CCON1CCC2(CC1)NC(=O)C(c1ccc(Cl)cc1Cl)C2=O` (stereo not drawn) [Compound T6] gave a melting point of 244 to 245 °C.
`C=CCOC(=O)OC1=C(c2cc(Br)ccc2C)C(=O)NC12CCN(OC)CC2` [Compound P45] gave a melting point of 157 to 158 °C.
With `CON1CCC2(CC1)NC(=O)C(c1ccc(C3CC3)cc1C)=C2OC(=O)C(C)(C)C` [Compound P61] the melting point was 244 to 245 °C.
In the case of `CON1CCC2(CC1)NC(=O)C(c1c(Cl)cccc1Cl)=C2OC(=O)N(C)CCC#N` [Compound P33], the melting point is reported as 239 to 242 °C.
Work on `CCOC(=O)OC1=C(c2ccc(Cl)cc2Cl)C(=O)NC12CCN(OCC)CC2` [Compound P23] yielded a melting point of 183 to 184 °C.
Compound `CCOC(=O)OC1=C(c2c(Cl)cccc2Cl)C(=O)NC12CCN(OC)CC2` [Compound P17] has a melting point of 229 to 232 °C.
Compound `COc1ccc(OC)c(C2=C(OC(=O)N(C)CCC#N)C3(CCN(OC)CC3)NC2=O)c1` [Compound P42] has a melting point of 187 to 189 °C.
`COc1ccc(OC)c(C2C(=O)NC3(CCN(OC)CC3)C2=O)c1` (stereo not drawn) [Compound T11] showed a melting point of 194 to 196 °C.
In the case of `CCC(=O)OC1=C(c2cc(C)ccc2C)C(=O)NC12CCN(OC)CC2` [Compound P20], the melting point is reported as 202 to 204 °C.
In the case of `C=CCOC1=C(c2cc(C)ccc2C)C(=O)NC12CCN(OC)CC2` [Compound P37], the melting point is reported as 173 to 174 °C.
With `CON1CCC2(CC1)NC(=O)C(c1cc(C)ccc1C)=C2OC(C)=O` [Compound P19] the melting point was 233 to 236 °C.
With `CON1CCC2(CC1)NC(=O)C(c1c(C)cc(C)cc1C)=C2OC(=O)N(C)CCC#N` [Compound P40] the melting point was 220 to 224 °C.
Compound `C=COC(=O)OC1=C(c2cc(C)ccc2C)C(=O)NC12CCN(OC)CC2` [Compound P6] has a melting point of 162 to 164 °C.
For `C#CCOC(=O)OC1=C(c2cc(C)ccc2C)C(=O)NC12CCN(OC)CC2` [Compound P8], the melting point was 151 to 153 °C.
In the case of `C=CCOC(=O)OC1=C(c2cc(OC)ccc2OC)C(=O)NC12CCN(OC)CC2` [Compound P47], the melting point is reported as 156 to 157 °C.
With `CON1CCC2(CC1)NC(=O)C(c1c(C)cc(C)c(Cl)c1C)C2=O` (stereo not drawn) [Compound T20] the melting point was > 200 °C.
Compound `COCOC1=C(c2cc(C)ccc2C)C(=O)NC12CCN(OC)CC2` [Compound P12] has a melting point of 183 to 185 °C.
Compound `CON1CCC2(CC1)NC(=O)C(c1cc(C)ccc1C)=C2OC(=O)OC(C)C` [Compound P3] has a melting point of 207 to 209 °C.
For `CON1CCC2(CC1)NC(=O)C(c1cc(C)ccc1C)=C2OC(=O)C(C)(C)C` [Compound P9], the melting point was 158 to 159 °C.
For `CCOC(=O)OC1=C(c2cc(OC)ccc2OC)C(=O)NC12CCN(OC)CC2` [Compound P31], the melting point was 192 to 193 °C.
With `CON1CCC2(CC1)NC(=O)C(c1c(C)cc(C3CC3)cc1C)=C2OC(=O)C(C)(C)C` [Compound P57] the melting point was > 200 °C.
`CCOC(=O)OC1=C(c2cc(C)ccc2C)C(=O)NC12CCN(OC)CC2` [Compound P1] showed a melting point of 170 to 173 °C.
In the case of `CON1CCC2(CC1)NC(=O)C(c1ccc(C3CC3)cc1Cl)C2=O` (stereo not drawn) [Compound T17], the melting point is reported as 206 to 207 °C.
Compound `CON1CCC2(CC1)NC(=O)C(c1cc(Br)c(F)cc1C)=C2OC(=O)C(C)(C)C` [Compound P63] has a melting point of 216 to 217 °C.
For `CON1CCC2(CC1)NC(=O)C(c1cc(C)ccc1C)=C2OC(=O)OCC(C)(C)C` [Compound P7], the melting point was 196 to 197 °C.
With `C=CCOC(=O)OC1=C(c2ccc(Cl)c(Cl)c2)C(=O)NC12CCN(OC)CC2` [Compound P46] the melting point was 210 to 213 °C.
`CON1CCC2(CC1)NC(=O)C(c1cc(Br)ccc1C)=C2OC(=O)N(C)CCC#N` [Compound P28] gave a melting point of 197 to 200 °C.
